“Also recorded” adds a separate entry of the source. Like-named read-outs stand apart in the source and are kept apart here.

Data set [1] deals with S180 sarcoma. Conditions: for 0 d weight / 11 d weight without tumor / Tumor inhibiting rate % / Tumor weight: i.v., S180 sarcoma-bearing mice. The source says:
(1) Sample: 3,4,5,4′-tetramethoxyl-α,β-diphenylethane-3′-O-sodium sulphate (AS) provided by Zhejiang Cell Biomedical Research Co., Ltd., and prepared by the process in Example One. Dissolved by physiological saline for the concentration needed.
(2) Cisplatin: Cisplatin for injection (DDP), Qilu Pharmaceutical Co., Ltd. Batch No.: 5120282DC. Dissolved by physiological saline for preparation.
(3) Control product: Cyclophosphamide for injection (CTX), Jiangsu Hengrui Pharmaceutical Inc. Co. Batch No.: 04123021 Dissolved by physiological saline for preparation.
(1) KM mouse bearing S180 sarcoma.
(2) 70 KM mice, female, weighting 18-22 g, provided by Zhejing College of Traditional Chinese Medicine.
(1) Drawing ascites under aseptic condition from mouse bearing S180 sarcoma, diluting with physiologic saline 1:3, giving subcutaneous inoculation in the armpit of the right forelimb of the KM mice with 0.2 ml each; dividing the mice into 7 groups randomly the next day, 10 in each group.
(2) Administering drug to the mice by weight the third day of inoculation, intravenous administration 0.5 ml/20 g […], by weight, and putting them to death on the 11th day after inoculation, weighing the tumor and calculating the rate of tumor inhibition.
(3) dosage (mg/kg/d) and means of administration:
AS: 50 mg/kg, tail vein injection
AS: 100 mg/kg, tail vein injection
AS: 200 mg/kg, tail vein injection
DDP: 1 mg/kg, tail vein injection
AS+DDP: 50 mg/kg+1 mg/kg, tail vein injection
CTX: 30 mg/kg, tail vein injection
Setting up another blank control group, tail vein injection of 0.9% NaCl 0.5 ml.
(§1) (4) Judging the result with the following formula: […]

The test system of data set [2] is Lewis lung cancer. Kind of data set: Joint administration of AS and DDP, murine model of Lewis lung cancer (Example Five). Type of data set: in vivo, C57BL/6J mice. Conditions: for Tumor inhibiting rate % / Tumor weight: i.v., mice bearing Lewis lung cancer.
Source text: (1) Sample: 3,4,5,4′-tetramethoxyl-α,β-diphenylethane-3′-O-sodium sulphate (AS), raw material medicine, provided by Zhejiang Cell Biomedical Research Co., Ltd., and prepared by the process in Example One. Batch No.: 061025. Dissolved by physiological saline for the concentration needed.
(2) Cisplatin: Cisplatin for injection (DDP), Qilu Pharmaceutical Co., Ltd. Batch No.: 5120282DC; Dissolved by physiological saline for preparation
(3) Control product: Cyclophosphamide for injection (CTX), Jiangsu Hengrui Pharmaceutical Inc. Co. Batch No.: 04123021. Dissolved by physiological saline for preparation.
(1) C57BL/6J mouse bearing Lewis lung cancer
(2) 70 C57BL/6J mice, female, weighing 17-21 g. Provided by the animal house of Zhejiang Cell Biomedical Research Co., Ltd.
(1) Taking tumor from C57BL/6J mouse under aseptic condition, grinding and diluting it by physiological saline 1:3 (weight:volume), and giving hypodermic inoculation 0.2 ml per mouse in the armpit of the right forelimb of each mouse. dividing the mice into 7 groups randomly the next day, 10 in each group.
(2) After inoculation, waiting till the tumor has grown to the accessible size, administering medicine according to body weight, 0.5 ml/20 g intravenous, for 11 days, putting the mice to death on the 19th after inoculation, taking out and weighing the tumor, and calculating the tumor inhibiting rate.
as §1

As to `COc1ccc(CCc2cc(OC)c(OC)c(OC)c2)cc1OS(=O)(=O)[O-].[Na+]` [AS, 3,4,5,4′-tetramethoxyl-α,β-diphenylethane-3′-O-sodium sulphate], the 0 d weight was 21.06 ± 0.82 g in data set [1] (Dosage 50 mg/kg), 20.46 ± 1.03 g in data set [1] (Dosage 100 mg/kg) and 20.45 ± 0.86 g in data set [1] (Dosage 200 mg/kg). For the same molecule, the figures for the “11 d weight without tumor” value in data set [1] (Dosage 50 mg/kg), in data set [1] (Dosage 100 mg/kg) and in data set [1] (Dosage 200 mg/kg) were 25.89 ± 3.32 g, 28.42 ± 4.13 g and 27.10 ± 2.44 g, respectively. Also, the “Tumor inhibiting rate %” value in data set [1] (Dosage 50 mg/kg) is recorded as 44%; in data set [1] (Dosage 100 mg/kg), 29%; in data set [1] (Dosage 200 mg/kg), 54%; in data set [2] (Dosage 50 mg/kg), 35.5%; in data set [2] (Dosage 100 mg/kg) it was 36.4%; in data set [2] (Dosage 200 mg/kg) it was 52.1%. In addition, the Tumor weight was 1.63 ± 1.43 g in data set [1] (Dosage 50 mg/kg); 2.07 ± 1.03 g in data set [1] (Dosage 100 mg/kg); 1.34 ± 0.53 g in data set [1] (Dosage 200 mg/kg); 3.03 ± 0.55 g in data set [2] (Dosage 50 mg/kg); 2.99 ± 0.50 g in data set [2] (Dosage 100 mg/kg); 2.25 ± 0.75 g in data set [2] (Dosage 200 mg/kg). Also, the “effect in inhibiting S180 tumors (in words)” value in data set [1] (joint administration with DDP) is reported as “fine coordinating effect; also recorded: excellent coordinating effect”. In addition, the “inhibiting the tumor in murine model of Lewis lung cancer (in words)” value in data set [2] (alone) is on record as “quite effective”. Besides, the “inhibiting the tumors in murine model of Lewis lung cancer (in words)” value in data set [2] (joint administration with DDP) is recorded as “certain coordinated effect”.

The record behind these values is US7632863B2, “3,4,5,4′-tetramethoxyl-α,β-diphenylethane-3′-O-sodium sulphate and its use” (The Jian Cell Biomedical Research Co., Ltd., priority 2007, dated 2009).
